From the METLIN SMRT retention time set (Domingo-Almenara et al. 2019) come the findings set out here.

This data set in a line: gradient 5% acetonitrile 3 min, to 50% in 2 min, to 85% in 15 min, held 3 min, 100 µL/min. The conditions noted are these: column: Zorbax Extend-C18 2.1 x 50 mm; eluents: water / acetonitrile, 0.1% formic acid. In short, it runs like this:
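Each retention time is based on an adduct peak selected computationally and verified by manual inspection. Measurements used HPLC–quadrupole time-of-flight mass spectrometry in positive and negative ionization mode on mixtures of ~100 pure standards. Chromatography ran on a Zorbax Extend-C18 column (2.1 × 50 mm, 1.8 μm) at 100 μL/min with water and acetonitrile, each containing 0.1% formic acid, and dead and dwell volumes of 40 μL and 900 μL.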
`O=C(Cn1cnc2nc(N3CCCC(C(=O)NC4CC4)C3)sc2c1=O)Nc1cccc(F)c1` (centres undefined) gave an RP-LC retention time of 655 s.
`CCc1ccc(CN2C(=O)CN(S(C)(=O)=O)CC2(C)C(=O)NCc2ccc(C)cc2)cc1` (centres undefined) yielded an RP-LC retention time of 963 s.
The compound `Cc1nn(CCCC(=O)NCCN(C)C)c(=O)c2c(-n3cccc3)n(-c3ccccc3)nc12` showed an RP-LC retention time of 664 s.
Compound `CCSc1nnc(-c2nn(C)c3c2CN(S(=O)(=O)c2ccc(F)cc2)CC3)n1CC` gave an RP-LC retention time of 943 s.
`CCN1C(=O)COc2ccc(-c3noc(CNS(=O)(=O)c4ccccc4)n3)cc21`: the RP-LC retention time worked out at 842 s.
The same measure for `Cc1ccc(NC(=O)N2CCC(n3c(-c4ccco4)nc4cccnc43)C2)cc1F` (centres undefined): 815 s; for `Cc1ccc(S(=O)(=O)N2C[C@@H](F)C[C@H]2C(=O)N2CCc3ccccc3C2)c(C)c1`: 992 s.
For the compound `Cc1ccc(N2CCC(NC(=O)NC(C)(C)C)C2=O)cc1C` (centres undefined), the RP-LC retention time was determined as 803 s.
In turn, `CCOC(=O)C1CCN(Cc2nc(-c3ccc(N4CCC(C)CC4)nc3)no2)CC1` displayed an RP-LC retention time of 745 s.
In turn, `COc1nccnc1NC1CCN(C(=O)c2ccnn2C)CC1` yielded an RP-LC retention time of 608 s.
Turning to `NC(=O)C1CCN(C2CC(=O)N(c3ccc(Cl)c(Cl)c3)C2=O)CC1` (centres undefined), the RP-LC retention time amounted to 611 s.
Regarding `Cc1ccc(-n2c(=O)c3c(cc(C)n3C)n(CC(=O)Nc3cc(Cl)ccc3C)c2=O)cc1`, the RP-LC retention time stood at 952 s.
As for `COCc1noc(C2CN(C(=O)c3cn[nH]c3)CC23CCCC3)n1` (centres undefined), the figure is 637 s; as for `CCOc1ccc(-c2noc(Cc3nc(-c4ccc(C)cc4)cs3)n2)cc1`, 1320 s; as for `COc1c(C(=O)NC2CCCC2)sc2ccc(F)cc12`, 1080 s.
The compound `Cc1cccc2cc3cccc(C)c3nc12` showed an RP-LC retention time of 696 s.
As for `COc1ccc(NS(=O)(=O)c2cc(-c3cc(C(F)(F)F)[nH]n3)sc2C)cc1Cl`, the figure is 995 s; as for `COc1ccccc1NC(=O)NCCc1nc2cccnc2n1C1CCCC1`, 728 s; as for `CC(CC(C#N)(c1ccccc1)c1ccccc1)N1CCCCC1` (centres undefined), 780 s.
On to `Cc1noc2nc(CCC(=O)N3CCc4ccccc43)nc(N3CCCCCC3)c12`, for which the RP-LC retention time turned out to be 1060 s.
With `O=C(c1ccc(F)cc1)N1CCN(c2nnc3ccccn23)CC1`, the RP-LC retention time is 613 s.
`Cc1ccc(C2NC(=O)N(CC(=O)Nc3cc(C)on3)C3=C2C(=O)OC3)cc1` (centres undefined) had an RP-LC retention time of 722 s.
On to `CN1C(=O)c2cc(C(=O)NC3CCCCC3)nn2CC1(C)C(=O)NCc1ccccc1` (centres undefined), for which the RP-LC retention time was 758 s.
The compound `O=C(Nc1ccc(C(F)(F)F)cc1)Nc1cccc(-c2nccnc2N2CCOCC2)c1` came in with an RP-LC retention time of 956 s.
As for `COC(=O)c1cccc(Nc2c(-c3ccccc3)nc3cnc(Br)cn23)c1`, the figure is 949 s; as for `COc1cccc2c1OC1(C)CC2C(S(=O)(=O)c2ccc(C)c(C)c2)C(=O)N1C` (centres undefined), 931 s; as for `CN(CC1CCOC1)C(=O)Cc1cccc(Cl)c1` (centres undefined), 734 s.
The same measure for `Cc1nc(-c2csc(S(=O)(=O)N3CCC(C(=O)N4CCc5ccccc5C4)CC3)c2)no1`: 1050 s.
In turn, `Cc1ccc(C)c(NC(=O)C(=O)NCC(c2ccc3c(c2)CCCN3C)N2CCOCC2)c1` (centres undefined) registered an RP-LC retention time of 601 s.
As for `Cc1nnc(-c2ccc3ccn(CC(=O)NC4CCCCCC4)c3c2)o1`, the RP-LC retention time is 813 s.
As for `O=C(Cn1cnc2nc(N3CCCC(C(=O)NC4CC4)C3)sc2c1=O)Nc1cc(F)cc(F)c1` (centres undefined), the figure is 717 s; as for `O=C(c1ccoc1)N1CC(n2cc(COCc3ccccc3)nn2)C1`, 734 s.
For `CN1C(=O)CCc2cc(NC(=O)Cc3ccsc3)ccc21`, the RP-LC retention time came to 709 s.
The compound `COCCC1CCN(C(=O)CN(C)C(=O)c2ccc(C#N)cc2)CC1` gave an RP-LC retention time of 666 s.
The same measure for `COCCCn1c(=O)c2ccccc2n(Cc2nc(-c3ccc(Cl)cc3)no2)c1=O`: 1070 s; for `CCc1nn2c(CNC(=O)c3ccc(F)cc3)c(-c3ccccc3)nc2s1`: 914 s; for `CCn1cc(S(=O)(=O)N2CCCn3nc(-c4ccncc4)cc3C2)cn1`: 577 s.
The same measure for `O=C(NC1CCCCCC1)C1CC(=O)N(CCc2c[nH]c3ccc(F)cc23)C1` (centres undefined): 812 s; for `COc1ccccc1N1CCN(c2ncc(C(F)(F)F)cc2Cl)CC1`: 1210 s.
The compound `CC(=O)N1CCC(Cc2noc(C3CC3)n2)C1` (centres undefined) returned an RP-LC retention time of 625 s.
The compound `Cc1nc(CNC(=O)C2CCN(C(=O)Nc3ccc(C)c(Cl)c3)CC2)cs1` yielded an RP-LC retention time of 714 s.
`Cc1cc(C)cc(-n2ccn(Cc3nc(-c4ccc(C)cc4C)no3)c(=O)c2=O)c1`: the RP-LC retention time turned out to be 1020 s.
The compound `CC1=C(C(=O)Nc2ccc(C(=O)N3CCN(c4ccc(Cl)cc4)CC3)cc2)SCCO1` returned an RP-LC retention time of 957 s.
Compound `O=C(CCc1conc1-c1ccc(F)cc1)NCC1CCCCC1` had an RP-LC retention time of 996 s.
Regarding `Cc1cccc(OCc2nc(C)c(C(=O)Nc3nc(-c4ccc(Cl)cc4)cs3)s2)c1`, the RP-LC retention time was determined as 1360 s.
In turn, `Cc1ccc(-c2noc(C3CC(=O)N(c4ccc5c(c4)OCCO5)C3)n2)cc1` (centres undefined) had an RP-LC retention time of 943 s.
For `CCn1cc(C)c(C(=O)O)c1CC(=O)NC1CCCCCC1`, the RP-LC retention time was 814 s.
`CC1CCN(c2nn(CC(=O)NCCc3ccc(Cl)cc3)c(=O)c3ccccc23)CC1` displayed an RP-LC retention time of 1190 s.
The same measure for `Cc1ccc2c(c1)NC(=O)C(CC(=O)N1CCN(c3cccc(C)c3C)CC1)CO2` (centres undefined): 781 s; for `O=C(NC1CCN(c2cc(-c3ccc(F)cc3)[nH]n2)C1)c1ccc(F)cc1F` (centres undefined): 736 s.
As for `Cc1cccc(-c2nc3cnccn3c2NCCC(=O)NC2CCCC2)c1`, the RP-LC retention time is 670 s.
As for `COc1ccc(C(=O)N2CCC3(CC2)NC(=O)c2cccc(Cl)c2N3)cc1`, the figure is 738 s; as for `COc1cc(OC)c(N(C)C(=O)C2CCCN(c3ncnc4c3nc3n4CCCCC3)C2)cc1Cl` (centres undefined), 854 s.
As for `CCNc1cc(N2CCC(CCC(=O)NCc3ccc(C)o3)CC2)ncn1`, the figure is 642 s; as for `Cc1ccc(Cn2c(CN3CC(C)OC(C)C3)nc3c2c(=O)n(C)c(=O)n3C)cc1` (centres undefined), 700 s; as for `COc1ccc(N2CCN(C(=O)C3CCN(S(=O)(=O)c4cn(C)c(C)n4)CC3)CC2)cc1`, 651 s.
In turn, `COCCN1CCC(CNS(=O)(=O)c2ccc(F)cc2C)CC1` had an RP-LC retention time of 566 s.
Compound `O=C(c1cc(-c2ccco2)on1)N1CCC2(CC1)OCCS2` had an RP-LC retention time of 822 s.
`O=C(Cn1cnc2c(nc3n2CCCCC3)c1=O)NCc1ccco1` showed an RP-LC retention time of 618 s.
